Laboratory results reported in paper PMC12440375 (Biochemistry, 2025).
Like-named read-outs stand apart in the source and are kept apart here.

Tests used:
EmrE [1] = target: T1, EmrE (Escherichia coli, UniProt P23895); assay: fluorescence polarization; format: binding
T1 sequence (P23895 1-110): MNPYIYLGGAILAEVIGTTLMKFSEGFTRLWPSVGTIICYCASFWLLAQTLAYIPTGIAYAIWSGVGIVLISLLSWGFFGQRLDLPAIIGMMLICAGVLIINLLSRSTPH

EmrE [2] = target: T2, EmrE (Escherichia coli, UniProt P23895, K22R); assay: fluorescence polarization; format: binding
T2 sequence (P23895 1-110 K22R): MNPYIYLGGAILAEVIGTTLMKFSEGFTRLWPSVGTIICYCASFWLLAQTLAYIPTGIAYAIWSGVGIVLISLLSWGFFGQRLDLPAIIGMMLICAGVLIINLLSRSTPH

EmrE [3] = target: T3, EmrE (Escherichia coli, UniProt P23895, K22A); assay: fluorescence polarization; format: binding
T3 sequence (P23895 1-110 K22A): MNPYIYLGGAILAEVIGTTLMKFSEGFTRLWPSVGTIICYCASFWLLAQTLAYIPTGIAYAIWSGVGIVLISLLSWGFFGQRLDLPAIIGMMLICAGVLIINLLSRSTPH

EmrE [4] = target: T3, EmrE; assay: TROSY-HSQC NMR; format: binding
native MS [5] = target: the molecule itself; assay: native MS
native MS [6] = target: the molecule itself; assay: native MS; remark: listed apart in the source

CC1=CC(C)=[N+]2C1=C(c1ccc3c(c1)OCCOCCOCCOCCOCCO3)c1c(C)cc(C)n1[B-]2(F)F [benzo[18]crown-6 BODIPY, 10-(2,3,5,6,8,9,11,12,14,15-decahydrobenzo[b][1,4,7,10,13,16]Hexaoxacyclooctadecin-18-yl)-5,5-difluoro-1,3,7,9-tetramethyl-5H-4l4,5l4-dipyrrolo[1,2-c:2′,1′-f][1,3,2]diazaborinine]
Kd (EmrE [1]): 97.4 nM | Kd (EmrE [2]): 226 nM | Kd (EmrE [3]): 154 nM

c1ccc([P+](c2ccccc2)(c2ccccc2)c2ccccc2)cc1 [tetraphenylphosphonium bromide]
TROSY-HSQC NMR (EmrE [4]): a portion of the drug-free K22A-EmrE was saturated with the substrate tetraphenylphosphonium bromide (TPP+)

B1: Saposin A (natural protein)
chain: SLPCDICKDVVTAAGDMLKDNATEEEILVYLEKTCDWLPKPNMSASCKEIVDSYLPVILDIIKGEMSRPGEVCSALNLCESLQ
stoichiometry N (native MS [5]): 2 | stoichiometry N (native MS [6]): 4

B2: EmrE (WT-EmrE), multidrug efflux pump from Escherichia coli (natural protein)
chain: MNPYIYLGGAILAEVIGTTLMKFSEGFTRLWPSVGTIICYCASFWLLAQTLAYIPTGIAYAIWSGVGIVLISLLSWGFFGQRLDLPAIIGMMLICAGVLIINLLSRSTPH
stoichiometry N (native MS [5]): 2
